IC50 and toxicity data for 1 molecule are collected here from patent US7772197B2, “1,3,5-triazines for treatment of viral diseases” (1,3,5-Triazines for Treatment of Viral Diseases, priority 2002, dated 2010).

A short description of data set [1]: Cytotoxicity on MT-2 cells (MTT). Particulars: human. The class given is cell-based. The method, then: For each compound, cytotoxicity was evaluated on MT-2 cells. MT-2 cells were seeded at 3×10^4 cells/well in 96-well plates. […] After 5 days growth in a 37° C. incubator containing 5% CO2, MTT was added to a final concentration of 0.5 mg/ml and then incubated for four hours at 37° C. 10% SDS in 0.02 N HCl was added to lyse the cells overnight at 37° C. The plates were read on a Tecan Genius microplate reader at wavelengths of 570 nm/650 nm. The dose response curve was graphed by comparing the treated cells with the untreated control and the IC50 was determined for each compound.

The nature of data set [2]: Toxicology in SCID-Hu Thy/Liv mice. It is filed as in vivo. Particulars: up to 100 mg/kg/day subcutaneously, 21 days. The method, then: After completion of this toxicology experiment, SN1212 was tested in HIV infected SCID-Hu mice. […] The discordance between viral infectivity and conventional surrogate markers of viral load, such as p24 or HIV RNA, is not surprising, as it has also been observed in vitro, and reflects the increased proportion of non-infectious viral particles in the presence of SN1212. It is also interesting to note that, of the treated groups, the immunologic profile of the SN1212 groups most closely resemble that of the uninfected group. This is compatible with the finding that infection with less “fit” viruses provides a relative clinical benefit by preserving cellular immunity.

The term IC50 denotes the point on the concentration scale where inhibition reaches its midpoint. A low value points to greater potency. In data set [1], `NC1=NC(=O)N([C@H]2C[C@H](O)[C@@H](CO)O2)CN1` [DHAdC, 1-(2-Deoxy-β-D-ribofuranosyl)-4-amino-1,2,5,6-tetrahydro-1,3,5-triazin-2-one] gave a half-inhibitory concentration (IC50) at 5 days greater than 1000 µM. Moreover, the toxicity entry in data set [2] is “without any significant toxicity”.
